Laboratory results taken from US12564636B2, “Pnictogen-containing heterocyclic compounds and their use” (University of Rhode Island Board of Trustees, priority 2022, dated 2026).

What was measured:
Assay type in all cases: physicochemical
[1] = Second order reaction rate constant of CAP compound with GSH (UV-Vis kinetics)
Method: (§1) In a typical experiment, an aliquot of the stock solution of CAP1-a in water was added to nucleophile in PIPES buffer or water. The progress of the reaction was monitored by UV-Vis spectrometer at suitable wavelength. The pseudo first order reaction rate constant was determined by plotting the ln value of the concentration of CAP1-a against the reaction time. The pseudo first order reaction rate constant thus obtained was plotted against the concentration of the nucleophile. The slope of this linear correlation is the second order reaction rate constant. CAP1-a was reacted separately with GSH, cysteine, N-acetylcysteine, and phenol.
Following the study above, compounds CAP1-F, CAP2, and CAP4 each were reacted with either GSH or phenol in water or 50 mM PIPES at pH 7.
In another study, compounds CAP1-b, CAP1-F, CAP2, CAP3, CAP4, and CAP5 each were reacted with either GSH in a 50 mM PIPES and 150 mM KCl aqueous solution at pH 7 and 25° C. […] The reaction between CAP5 and GSH has a k2 as high as 3.2×10^5 M^−1·S^−1, 7×10^9 folds faster than its reaction with water under the same conditions. […] S^−1.

[2] = Stability in D2O observed by 1H NMR; settings: r.t.
Text: 1H NMR (400 MHz, D2O) δ 8.08−7.98 (m, 2H), δ 7.92−7.85 (m, 2H), 4.41 (s, 6H), 3.75 (s, 3H).

[3] = Second order reaction rate constant of CAP compound with cysteine (UV-Vis kinetics); settings: similar reaction conditions (25° C., pH 7, 50 mM PIPES)
Method: as §1

[4] = Reaction of CAP compound with water (hydrolysis rate, stability in water)
Method: as §1
On the other hand, the reaction between CAP4 and water is very slow, showing a k2 of only 4.8−10^−6 M^−1·S^−1 at 25° C. and pH 7 in 50 mM PIPES.

[5] = 50 mM PIPES and 150 mM KCl aqueous solution, pH 7, 25° C.

SMILES | second order reaction rate constant (k2), reaction with GSH [1, 5] | second order reaction rate constant (k2), reaction with GSH ([1]; 25° C., pH 7, 50 mM PIPES) | further results
C[n+]1ccccc1F [CAP1-b, N-methyl-2-fluoropyridinium tetrafluoroborate] | 1.2×10^2 M^−1·S^−1 |  | 
C[n+]1ccc(S(C)(=O)=O)cc1 [CAP3, N-Methyl-4-(methylsulfonyl)pyridinium tetrafluoroborate] | 9.8×10^3 M^−1·S^−1 |  | 
C[n+]1ccccc1S(C)(=O)=O [CAP4, N-methyl-2-(methylsulfonyl)pyridinium tetrafluoroborate] | 1.2×10^5 M^−1·S^−1 | 5.3×10^4 M^−1·S^−1 | 
Cn1c(S(C)(=O)=O)[n+](C)c2ccccc21 [CAP23, 1,3-dimethyl-2-(methylsulfonyl)-1H-benzo[d]imidazol-3-ium tetrafluoroborate] |  |  | stability in D2O [2]: moderate stability; time after which the compound is completely hydrolyzed in D2O [2]: 12 h
C[n+]1c(Cl)cccc1S(C)(=O)=O [CAP5, 2-Chloro-1-methyl-6-(methylsulfonyl)pyridin-1-ium tetrafluoroborate] | 3.2×10^5 M^−1·S^−1 |  | 
C[n+]1ccccc1F.[I-] [CAP1-a, N-methyl-2-fluoropyridinium iodide] |  | 1.2×10^2 M^−1·S^−1 | second order reaction rate constant (k2), reaction with cysteine [3]: 2.8×10^2 M^−1·S^−1; second order reaction rate constant (k2), reaction with water ([4]; CAP1-a and water): 4.5×10^−6 M^−1 S^−1; stability in water (in words) ([4]; inferred from slow reaction with water): high stability
